Reference: PubChem BioAssay (NCI)
Several values for one entry are separate records, joined by “and”; a condition that tells them apart may be missing. Identical values can stand only once.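 These data come from cells grown in 96-well plates and exposed to compound for 48 hours at five concentrations. GI50 is the concentration that inhibits growth by half. TGI denotes the concentration required for complete inhibition of growth.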

Key:
Assay in all cases: NCI tumour cell line growth inhibition, 48 h
K-562 leukemia = system: K-562 leukemia
UO-31 renal = system: UO-31 renal
EKVX NSCLC = system: EKVX NSCLC
HOP-62 NSCLC = system: HOP-62 NSCLC
TK-10 renal = system: TK-10 renal
A498 renal = system: A498 renal
UACC-62 melanoma = system: UACC-62 melanoma
NCI-H522 lung = system: NCI-H522 lung
SF-268 CNS = system: SF-268 CNS
SF-295 CNS = system: SF-295 CNS

Row | Structure (SMILES) | GI50 (K-562 leukemia) | TGI (K-562 leukemia) | GI50 (UO-31 renal) | TGI (UO-31 renal) | GI50 (EKVX NSCLC) | TGI (EKVX NSCLC) | GI50 (HOP-62 NSCLC) | TGI (HOP-62 NSCLC) | GI50 (TK-10 renal) | TGI (TK-10 renal) | GI50 (A498 renal) | TGI (A498 renal) | GI50 (UACC-62 melanoma) | TGI (UACC-62 melanoma) | GI50 (NCI-H522 lung) | TGI (NCI-H522 lung) | GI50 (SF-268 CNS) | TGI (SF-268 CNS) | GI50 (SF-295 CNS) | TGI (SF-295 CNS)
1 | COc1ccc(C(=O)c2nc3ccccc3n2CC(=O)c2ccc(Cl)cc2)cc1 | 0.585 µM | > 100 µM | 7.04 µM | > 100 µM | 11.6 µM | > 100 µM | 4.78 µM | > 100 µM | 4.02 µM | > 100 µM | 4.07 µM | 39.4 µM | 4.93 µM | > 100 µM | 3.95 µM | > 100 µM | 5.98 µM | > 100 µM | 2.5 µM | > 100 µM
2 | CCCCCCCCCCCC1CC(=O)NCCCN(C)CCCCN(C)CCCN1C (stereo not drawn) |  | 0.699 µM |  | 3.11 µM |  | 3.2 µM |  | 3.04 µM |  | 3.12 µM |  | 3.14 µM |  | 3.09 µM |  | 3.27 µM |  | 3.3 µM |  | 3.07 µM
3 | CC(C)(C)NCC(COc1ccc([N+](=O)[O-])cc1)OP(c1ccccc1)c1ccccc1 (stereo not drawn) |  | > 100 µM |  | > 100 µM |  | > 100 µM |  | > 100 µM |  | > 100 µM |  | > 100 µM |  | > 100 µM |  | 69.5 µM |  | > 100 µM |  | > 100 µM
4 | COc1ccc2[nH]c(-c3ccc(O)cc3)cc(=O)c2c1 |  | > 48.3 µM |  | 98.2 µM |  | > 31.2 µM |  | > 58.8 µM |  | > 89.7 µM |  | 0.725 µM |  | 38.9 µM |  | 1.35 µM |  | 20.6 µM |  | 6.71 µM
5 | COc1ccc(-c2c(C3=NCCCN3)nnn2-c2ccc([N+](=O)[O-])cc2)cc1 |  | > 100 µM |  | > 100 µM |  | > 100 µM |  | > 100 µM |  | > 100 µM |  | > 100 µM |  | > 100 µM |  | > 100 µM |  | > 100 µM |  | > 100 µM
6 | CN1c2ccccc2SC2C(c3ccccc3)=NOC21 (stereo not drawn) |  | > 100 µM |  | > 100 µM |  | > 100 µM |  | > 100 µM |  | 80 µM |  | > 100 µM |  | > 100 µM |  | 64.1 µM |  | > 100 µM |  | > 100 µM
7 | CC(C)[O-].CC(C)[O-].CN(CCN(C)Cc1cc(F)cc(F)c1[O-])Cc1cc(F)cc(F)c1[O-].[Ti+4] | 0.835 µM | 5.49 µM | 0.977 µM | 5.46 µM | 1.31 µM | 10 µM | 0.634 µM | 3.68 µM | 1.42 µM | 7.26 µM | 1.13 µM | 2.76 µM | 1.26 µM | 3.09 µM | 0.777 µM | 2.33 µM | 1.04 µM | 3.22 µM | 0.71 µM | 3.76 µM
8 | N#C/C(=C1\SC(N=Nc2ccc(Cl)cc2)C(=O)N1c1ccccc1)c1nc2ccccc2[nH]1 (stereo not drawn) |  | 41 µM |  | 40 µM |  | > 100 µM |  | 35.4 µM |  | 61.6 µM |  | 58.4 µM |  | > 100 µM |  | 79.9 µM |  | > 100 µM |  | 58.7 µM
9 | CC(=Nc1ccc(S(N)(=O)=O)cc1)c1c(O)[nH]c2ccccc12 | > 25 µM | > 25 µM | 7.37 µM | > 25 µM | > 25 µM | > 25 µM | > 14.5 µM | > 25 µM | > 25 µM | > 25 µM | > 25 µM | > 25 µM | > 25 µM | > 25 µM | > 25 µM | > 25 µM | > 25 µM | > 25 µM | > 25 µM | > 25 µM
10 | [2H]c1nc(=Nc2cc(NC(=O)C=C)c(N(C)CCN(C)C)cc2OC)[nH]c(-c2cn(C([2H])([2H])[2H])c3ccccc23)c1[2H] | 1.29 µM | 3.78 µM | 0.943 µM | 2.25 µM | 0.853 µM | 11.5 µM | 4.25 µM | 20.7 µM | 0.0802 µM | 3.8 µM | 1.21 µM | 4.56 µM | 1.72 µM | 3.28 µM | 0.265 µM | 2.24 µM | 1.98 µM | 13 µM | 1.97 µM | 4.5 µM
11 | CCOC(OC1=C(C#N)CCCC1)C(CC)[Se]c1ccccc1 (stereo not drawn) |  | > 100 µM |  | > 100 µM |  | 69.2 µM |  | > 100 µM |  | > 100 µM |  | > 100 µM |  | 48 µM |  | 29 µM |  | 27.8 µM |  | 98.7 µM
12 | Cc1ccccc1/C=C/C(=O)c1ccccc1 |  | 49.7 µM |  | 36.2 µM |  | 33.7 µM |  | 30.8 µM |  |  |  | 30.2 µM |  | 38 µM |  | 46.8 µM |  | 30 µM |  | 
13 | O=C1/C(=C/c2ccc([N+](=O)[O-])cc2)COc2ccc(O)cc21 | 2.28 µM | > 100 µM | 1.45 µM | 3.6 µM | 42.7 µM | > 100 µM | 49.8 µM | > 100 µM | 26.2 µM | > 100 µM | 4.52 µM | > 100 µM | 9.02 µM | 34.5 µM | 2.05 µM | 6.05 µM | 15.3 µM | > 100 µM | > 100 µM | > 100 µM
14 | CCNCCNc1cc(-c2ccc(C#N)cc2)c(C#N)c2nc3ccccc3n12 | 3.13 µM | 18.2 µM | 1.62 µM | 3.1 µM | 4.75 µM | 19.3 µM | 3.13 µM | 14.9 µM | 2.03 µM | 5.74 µM | 3.73 µM | 11.9 µM | 2.02 µM | 4.18 µM | 2.44 µM | 7.06 µM | 3.42 µM | 14.1 µM | 1.79 µM | 3.6 µM
15 | COc1ccc(F)c(F)c1C(=O)c1cnc(NC2CCN(S(C)(=O)=O)CC2)nc1N | 2.05 µM and 1.95 µM | > 100 µM | 0.779 µM and 0.36 µM | 6.96 µM and > 9.24 µM | 0.923 µM | 7.73 µM | 0.959 µM and 0.45 µM | > 23.4 µM and 7.93 µM | 0.493 µM and 0.333 µM | > 20.3 µM | 0.445 µM | 2.08 µM | 0.655 µM and 0.284 µM | 2.77 µM and 2.45 µM | 2.38 µM and 1.62 µM | 6.97 µM and 5.86 µM | 1.14 µM and 0.527 µM | 7.16 µM and > 7.59 µM | 0.693 µM and 0.352 µM | > 100 µM
16 | Cc1ccc(-n2nc(C(C)(C)C)cc2NC(=O)NCc2cc(F)ccc2Oc2ccc3c(cnn3CCO)c2)cc1 | 0.00802 µM and 0.0185 µM | > 10 µM | 1.33 µM and 2.76 µM | > 55.5 µM | > 10 µM | > 10 µM | > 10 µM and 8.95 µM | > 81.5 µM | > 10 µM and 10.8 µM | > 91.9 µM | 1.02 µM and 1.48 µM | 9.34 µM and 6.97 µM | 0.667 µM | > 39.8 µM | > 10 µM and 5.32 µM | > 10 µM and 37.8 µM | > 10 µM and 4.61 µM | > 100 µM | > 10 µM and 10.2 µM | > 100 µM
